Measured values published in the supplement of paper PMC11061612.

Key:
Assay in all cases: combination Emax (second highest fraction inhibited in the dose matrix, 72 h); higher = more inhibition; extreme values may be limits of the assay
SN12C (Kidney Carcinoma) = test system: SN12C (Kidney Carcinoma)
In short: (§1)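 Cell lines grown in DMEM/F12 or RPMI with 10% FBS were plated in 1536-well plates and held 24 hours at 37°C, 5% CO2 before 72 hours of exposure to two-drug dose matrices, with DMSO typically at 0.2%. CellTiter-Glo 2.0 luminescence gave viability, which was converted to inhibition. Vehicle wells were set to 0 and blank wells to 1. Combination Emax is the second-highest inhibition in the matrix, and Bliss excess is the observed combination effect minus the expected EA + EB − EA·EB, where EA and EB are the single-agent effects.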

NCI-H2369 (Mesothelioma) = test system: NCI-H2369 (Mesothelioma)
In short: as §1

[1] = test system: NCI-H1793 (Lung Adenocarcinoma)
In short: as §1

[2] = test system: NCI-H1299 (Non-Small Cell Lung Carcinoma)
In short: as §1

[3] = test system: MDA-MB-231 (Breast Carcinoma)
In short: as §1

RH-1 (Ewing's Sarcoma) = test system: RH-1 (Ewing's Sarcoma)
In short: as §1

[4] = test system: CFPAC-1 (Pancreatic Carcinoma)
In short: as §1

[5] = test system: SW1783 (Low Grade Glioma)
In short: as §1

IGR-1 (Melanoma) = test system: IGR-1 (Melanoma)
In short: as §1

[6] = test system: C3A (Hepatocellular Carcinoma)
In short: as §1

[7] = test system: NCI-H1694 (Small Cell Lung Carcinoma)
In short: as §1

[8] = test system: G-292-Clone-A141B1 (Osteosarcoma)
In short: as §1

[9] = test system: SW780 (Bladder Carcinoma)
In short: as §1

[10] = test system: KARPAS-620 (Plasma Cell Myeloma)
In short: as §1

[11] = test system: HT-29 (Colorectal Carcinoma)
In short: as §1

[12] = test system: IHH-4 (Thyroid Gland Carcinoma)
In short: as §1

[13] = test system: SNU-C5 (Colorectal Carcinoma)
In short: as §1

[14] = test system: NALM-6 (B-Lymphoblastic Leukemia)
In short: as §1

[15] = test system: SW1088 (Low Grade Glioma)
In short: as §1

[16] = test system: KATOIII (Gastric Carcinoma)
In short: as §1

Structure (SMILES) | combination Emax (SN12C (Kidney Carcinoma)) | combination Emax (NCI-H2369 (Mesothelioma)) | combination Emax [1] | combination Emax [2] | combination Emax [3] | combination Emax (RH-1 (Ewing's Sarcoma)) | combination Emax [4] | combination Emax [5] | combination Emax (IGR-1 (Melanoma)) | combination Emax [6] | combination Emax [7] | combination Emax [8] | combination Emax [9] | combination Emax [10] | combination Emax [11] | combination Emax [12] | combination Emax [13] | combination Emax [14] | combination Emax [15] | combination Emax [16]
CCN(CCO)CCCOc1ccc2c(Nc3cc(CC(=O)Nc4cccc(F)c4)[nH]n3)ncnc2c1 [AZD2811] + O=C(c1cc(Cc2n[nH]c(=O)c3ccccc23)ccc1F)N1CCN(C(=O)C2CC2)CC1 [Olaparib] (first compound max 1 µM, 7x7, partner max 10 µM) | 0.273 | 0.216 | 0.0897 | 0.303 | 0.275 | 0.947 | 0.215 | 0.201 | 0.168 | 0.253 | 0.276 | 0.304 | 0.242 | 0.4 | 0.182 | 0.459 | 0.161 | 0.873 | 0.616 | 0.12
Cc1cc2ncnn2cc1Nc1ncc2c(n1)n(C1CCOCC1)c(=O)n2C [AZD7648] + C=CCn1c(=O)c2cnc(Nc3ccc(N4CCN(C)CC4)cc3)nc2n1-c1cccc(C(C)(C)O)n1 [AZD1775] (first compound max 10 µM, partner max 1 µM) | 0.313 | 0.314 | 0.416 | 0.72 | 0.434 | 1 | 0.444 | 0.322 | 0.25 | 0.521 | 0.383 | 0.295 | 0.233 | 0.597 | 0.816 | 0.802 | 0.609 | 0.898 | 0.504 | 0.391
CC(=O)c1c(C)c2cnc(Nc3ccc(N4CCNCC4)cn3)nc2n(C2CCCC2)c1=O [Palbociclib] + Cn1cnc2c(F)c(Nc3ccc(Br)cc3Cl)c(C(=O)NOCCO)cc21 [Selumetinib] (first compound max 10 µM, 7x7, partner max 10 µM) | 0.283 | 0.144 | 0.318 | 0.463 | 0.64 | 0.228 | 0.411 | 0.0922 | 0.919 | 0.556 | 0.306 | 0.12 | 0.356 | 0.631 | 0.769 | 0.59 | 0.463 | 0.876 | 0.358 | 0.465
COc1nnc2ccc(N3CCC(c4ccc(OCCN5CCN(C)C(=O)[C@H]5C)cc4)CC3)nn12 [AZD5153] + C=CCn1c(=O)c2cnc(Nc3ccc(N4CCN(C)CC4)cc3)nc2n1-c1cccc(C(C)(C)O)n1 [AZD1775] (first compound max 1 µM, partner max 1 µM) | 0.165 | 0.461 | 0.358 | 0.777 | 0.612 | 0.997 | 0.506 | 0.41 | 0.623 | 0.718 | 0.714 | 0.402 | 0.429 | 0.764 | 0.868 | 0.662 | 0.682 | 0.951 | 0.513 | 0.473
CN(CCO)CC[C@H](CSc1ccccc1)Nc1ccc(S(=O)(=O)NC(=O)c2ccc(N3CCC([C@@H](O)c4ccccc4-c4ccc(Cl)cc4)CC3)cc2)cc1S(=O)(=O)C(F)(F)F [AZD4320] + C[C@@H](Nc1cc(F)cc(F)c1)c1cc(C(=O)N(C)C)cc2c(=O)cc(N3CCOCC3)oc12 [AZD8186] (first compound max 1 µM, 7x7, partner max 3 µM) | 0.331 | 0.375 | 0.342 | 0.297 | 0.808 | 0.885 | 0.424 | 0.663 | 0.901 | 0.632 | 0.978 | 0.799 | 0.742 | 1 | 0.278 | 0.516 | 0.399 | 0.997 | 0.515 | 0.135
COc1nnc2ccc(N3CCC(c4ccc(OCCN5CCN(C)C(=O)[C@H]5C)cc4)CC3)nn12 [AZD5153] + C[C@@H]1COCCN1C2=NC(=NC(=C2)C3(CC3)[S@](=N)(=O)C)C4=C5C=CNC5=NC=C4 [AZD6738] (first compound max 1 µM, 7x7, partner max 10 µM) | 0.204 | 0.363 | 0.629 | 0.794 | 0.81 | 0.957 | 0.574 | 0.515 | 0.728 | 0.741 | 0.921 | 0.458 | 0.465 | 0.835 | 0.863 | 0.772 | 0.816 | 0.958 | 0.645 | 0.553
Cc1cc2ncnn2cc1Nc1ncc2c(n1)n(C1CCOCC1)c(=O)n2C [AZD7648] + CN(C)CCCOc1ccc(-c2ccc3ncc4c(c3c2)n(C2CCOCC2)c(=O)n4C)cn1 [AZD0156] (first compound max 10 µM, 7x7, partner max 1 µM) | 0.262 | 0.198 | 0.333 | 0.352 | 0.42 | 0.127 | 0.235 | 0.277 | 0.0864 | 0.251 | 0.165 | 0.341 | 0.18 | 0.468 | 0.247 | 0.329 | 0.337 | 0.323 | 0.419 | 0.291
COc1cccc(OCCCN)c1-c1cc(Nc2cnc(C#N)cn2)n[nH]1 [Prexasertib] + Cc1cc2ncnn2cc1Nc1ncc2c(n1)n(C1CCOCC1)c(=O)n2C [AZD7648] (first compound max 1 µM, 7x7, partner max 10 µM) | 0.387 | 0.253 | 0.432 | 0.711 | 0.696 | 1 | 0.692 | 0.473 | 0.508 | 0.611 | 0.808 | 0.295 | 0.26 | 0.817 | 0.861 | 0.947 | 0.886 | 0.943 | 0.762 | 0.526
Cc1nc(Nc2ncc(C(=O)Nc3c(C)cccc3Cl)s2)cc(N2CCN(CCO)CC2)n1 [Dasatinib] + CC(=O)Nc1cccc(-n2c(=O)n(C3CC3)c(=O)c3c(Nc4ccc(I)cc4F)n(C)c(=O)c(C)c32)c1 [Trametinib] (first compound max 2 µM, 7x7, partner max 1 µM) | 0.455 | 0.277 | 0.567 | 0.795 | 0.832 | 0.08 | 0.847 | 0.43 | 0.351 | 0.577 | 0.111 | 0.722 | 0.625 | 0.645 | 0.981 | 0.896 | 0.571 | 0.621 | 0.666 | 0.629
Cc1c2c(nn1C)CSCc1cc(n(C)n1)CSc1cc(c3ccccc3c1)OCCCc1c(C(=O)O)n(C)c3c-2c(Cl)ccc13 [AZD5991] + Cn1cnc2c(F)c(Nc3ccc(Br)cc3Cl)c(C(=O)NOCCO)cc21 [Selumetinib] (first compound max 1 µM, 7x7, partner max 3 µM) | 0.246 | 0.151 | 0.244 | 0.3 | 0.4 | 0.52 | 0.322 | 0.211 | 0.622 | 0.487 | 0.986 | 0.221 | 0.333 | 1 | 0.706 | 0.385 | 0.456 | 0.369 | 0.229 | 0.178
COc1cccc(OCCCN)c1-c1cc(Nc2cnc(C#N)cn2)n[nH]1 [Prexasertib] + CCc1c2c(nc3ccc(O)cc13)-c1cc3c(c(=O)n1C2)COC(=O)[C@]3(O)CC [SN-38] (first compound max 1 µM, 7x7, partner max 0.3 µM) | 0.76 | 0.4 | 0.769 | 0.79 | 0.978 | 1 | 0.841 | 0.847 | 0.893 | 0.649 | 1 | 0.34 | 0.969 | 0.889 | 0.936 | 0.965 | 0.928 | 0.983 | 0.849 | 0.562
CC(=O)c1c(C)c2cnc(Nc3ccc(N4CCNCC4)cn3)nc2n(C2CCCC2)c1=O [Palbociclib] + Cc1c2c(nn1C)CSCc1cc(n(C)n1)CSc1cc(c3ccccc3c1)OCCCc1c(C(=O)O)n(C)c3c-2c(Cl)ccc13 [AZD5991] (first compound max 10 µM, 7x7, partner max 1 µM) | 0.166 | 0.199 | 0.212 | 0.478 | 0.455 | 0.853 | 0.375 | 0.159 | 0.818 | 0.592 | 0.667 | 0.161 | 0.223 | 1 | 0.449 | 0.411 | 0.35 | 0.846 | 0.364 | 0.406
NC1(C(=O)N[C@@H](CCO)c2ccc(Cl)cc2)CCN(c2ncnc3[nH]ccc23)CC1 [Capivasertib] + CC(C)n1c(=O)n(C)c2cnc3cc(F)c(-c4ccc(OCCCN5CCCCC5)nc4)cc3c21 [AZD1390] (first compound max 10 µM, 7x7, partner max 0.3 µM) | 0.205 | 0.222 | 0.265 | 0.254 | 0.334 | 0.333 | 0.235 | 0.454 | 0.334 | 0.255 | 0.223 | 0.219 | 0.176 | 0.775 | 0.345 | 0.203 | 0.416 | 0.675 | 0.624 | 0.345
